The values that follow are results of earlier work, collected in patent US6624294B2, “Regioselective synthesis of 2′-O-modified nucleosides” (ISIS Pharmaceuticals, Inc., priority 1999, dated 2003).

Molecules are shown by their SMILES.

The term pKa denotes the negative logarithm of the acid dissociation constant.

The conditions of this data set: hydroxylamino function.

For `CON(C)C` [MeONHMe2], the pKa was 3.65.

Consider `CNOC` [MeONHMe], for which the pKa is recorded as 4.75.

Take `CON` [MeONH2]: the pKa was 4.2.
